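Following 48 hours of exposure in 96-well plates, responses at five concentrations were used to interpolate endpoints linearly. Abbreviation: GI50, concentration required for 50% inhibition of growth.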 Activity calls are given as the source filed them. No stated cut-off is given here; in the data, active = GI50 up to about 1.1 µM and inactive = higher.
Key:
Assay in all cases: NCI tumour cell line growth inhibition, 48 h
DU-145 = tested on: DU-145
EKVX = tested on: EKVX
HOP-62 = tested on: HOP-62
HT-29 = tested on: HT-29
M14 = tested on: M14
MDA-MB-231 = tested on: MDA-MB-231
MDA-N = tested on: MDA-N
NCI-H226 = tested on: NCI-H226
NCI-H460 = tested on: NCI-H460
OVCAR-3 = tested on: OVCAR-3
OVCAR-4 = tested on: OVCAR-4
OVCAR-8 = tested on: OVCAR-8
RPMI-8226 = tested on: RPMI-8226
SF-295 = tested on: SF-295
SN12C = tested on: SN12C
SNB-19 = tested on: SNB-19
SW-620 = tested on: SW-620
TK-10 = tested on: TK-10
UO-31 = tested on: UO-31
SF-539 = tested on: SF-539

| SMILES | GI50 (DU-145) | GI50 (EKVX) | GI50 (HOP-62) | GI50 (HT-29) | GI50 (M14) | GI50 (MDA-MB-231) | GI50 (MDA-N) | GI50 (NCI-H226) | GI50 (NCI-H460) | GI50 (OVCAR-3) | GI50 (OVCAR-4) | GI50 (OVCAR-8) | GI50 (RPMI-8226) | GI50 (SF-295) | GI50 (SN12C) | GI50 (SNB-19) | GI50 (SW-620) | GI50 (TK-10) | GI50 (UO-31) | GI50 (SF-539) |
| --- | --- | --- | --- | --- | --- | --- | --- | --- | --- | --- | --- | --- | --- | --- | --- | --- | --- | --- | --- | --- |
| CC(C)(C)OC(=O)NCCCCC1NC(=O)[C@@H]2Cc3c([nH]c4ccccc34)C(c3ccccc3)N2C1=O (some centres undefined) | 49.2 µM (inactive) | 44.9 µM (inactive) | 30.3 µM (inactive) | 25.6 µM (inactive) | 28.6 µM (inactive) | 27.4 µM (inactive) | 29.4 µM (inactive) | 63.7 µM (inactive) | 30.4 µM (inactive) | 19 µM (inactive) | 48.5 µM (inactive) | 36.2 µM (inactive) | 27.7 µM (inactive) | 22 µM (inactive) | 28.8 µM (inactive) | 50.1 µM (inactive) | 54 µM (inactive) | 35.2 µM (inactive) | 10.7 µM (inactive) | – |
| COc1ccc2nccc(SCC(=O)O)c2c1 | > 100 µM (inactive) | > 100 µM (inactive) | > 100 µM (inactive) | > 100 µM (inactive) | > 100 µM (inactive) | > 100 µM (inactive) | > 100 µM (inactive) | > 100 µM (inactive) | > 100 µM (inactive) | > 100 µM (inactive) | > 100 µM (inactive) | > 100 µM (inactive) | > 100 µM (inactive) | > 100 µM (inactive) | > 100 µM (inactive) | > 100 µM (inactive) | > 100 µM (inactive) | > 100 µM (inactive) | > 100 µM (inactive) | – |
| COc1cc(/C=C/c2ccnc3ccccc23)cc(OC)c1OC | 4.84 µM (inactive) | 8.87 µM (inactive) | 7.16 µM (inactive) | 1.28 µM (inactive) | 3.63 µM (inactive) | 2.21 µM (inactive) | 0.351 µM (active) | 5.04 µM (inactive) | 3.77 µM (inactive) | 3.3 µM (inactive) | 1.81 µM (inactive) | – | 3.72 µM (inactive) | 8.47 µM (inactive) | 3.56 µM (inactive) | 10.4 µM (inactive) | 4.93 µM (inactive) | 5.37 µM (inactive) | 0.132 µM (active) | 3.78 µM (inactive) |
| CC1CC[C@@]2(OC1)O[C@H]1[C@H](O)[C@H]3[C@@H]4CC[C@H]5C[C@@H](OC6OC(CO)C(OC7OC(CO)C(O)C(OC8OCC(O)C(O)C8O)C7OC7OC(CO)C(O)C(O)C7OC7OC(CO)C(O)C(O)C7O)C(O)C6O)[C@H](O)C[C@]5(C)[C@H]4CC[C@]3(C)[C@H]1[C@@H]2C (some centres undefined) | > 10 µM (inactive) | > 10 µM (inactive) | > 10 µM (inactive) | > 10 µM (inactive) | > 10 µM (inactive) | 2.61 µM (inactive) | > 10 µM (inactive) | > 10 µM (inactive) | > 10 µM (inactive) | 2.85 µM (inactive) | 7.08 µM (inactive) | > 10 µM (inactive) | 2.15 µM (inactive) | – | 3.89 µM (inactive) | 9.35 µM (inactive) | > 10 µM (inactive) | > 10 µM (inactive) | 4.18 µM (inactive) | 9.46 µM (inactive) |
| Cc1ccc2c(c1)NC(c1ccc(C(=O)O)cc1)c1cccn1-2 (centres undefined) | 26 µM (inactive) | 22.1 µM (inactive) | 24 µM (inactive) | 78.3 µM (inactive) | 46.8 µM (inactive) | 37.2 µM (inactive) | 75.2 µM (inactive) | > 100 µM (inactive) | 66.5 µM (inactive) | 47.3 µM (inactive) | 17.2 µM (inactive) | – | > 100 µM (inactive) | 37.8 µM (inactive) | 69.7 µM (inactive) | 22.4 µM (inactive) | > 100 µM (inactive) | 30.8 µM (inactive) | – | > 100 µM (inactive) |
| Clc1ccccc1/C=C\C1(c2ccccc2)OCCO1 | 16.7 µM (inactive) | 19.1 µM (inactive) | 22.3 µM (inactive) | 15.8 µM (inactive) | > 100 µM (inactive) | 12.7 µM (inactive) | 15.6 µM (inactive) | 27.1 µM (inactive) | 16.8 µM (inactive) | 17.7 µM (inactive) | 18 µM (inactive) | 17.7 µM (inactive) | 4.2 µM (inactive) | 16.7 µM (inactive) | 18.1 µM (inactive) | – | 16.1 µM (inactive) | 22.2 µM (inactive) | > 100 µM (inactive) | 24.9 µM (inactive) |
| O=C1CC(c2ccc(Cl)cc2)C2(C(=O)NC(=S)NC2=O)C(c2ccc(Cl)cc2)C1 (centres undefined) | 37.2 µM (inactive) | 29 µM (inactive) | 26.8 µM (inactive) | 16.9 µM (inactive) | 22.2 µM (inactive) | 20.2 µM (inactive) | 17.2 µM (inactive) | 21.7 µM (inactive) | 14.9 µM (inactive) | 17.4 µM (inactive) | 17.5 µM (inactive) | – | 20.6 µM (inactive) | 17.6 µM (inactive) | 18.2 µM (inactive) | 18.4 µM (inactive) | 21.5 µM (inactive) | 41.1 µM (inactive) | 23.9 µM (inactive) | 20 µM (inactive) |
| COc1cc(/C=C2/SC(c3ccccc3)N(c3cc(Cl)ccc3Cl)C2=O)cc(OC)c1OC (centres undefined) | > 100 µM (inactive) | 84.9 µM (inactive) | > 100 µM (inactive) | > 100 µM (inactive) | 50.9 µM (inactive) | > 100 µM (inactive) | 19.1 µM (inactive) | > 100 µM (inactive) | > 100 µM (inactive) | 52.2 µM (inactive) | 49.8 µM (inactive) | > 100 µM (inactive) | 23.8 µM (inactive) | 47.1 µM (inactive) | > 100 µM (inactive) | > 100 µM (inactive) | 49.9 µM (inactive) | > 100 µM (inactive) | 75.3 µM (inactive) | – |
| CC1(C)CC(=O)C(CC(C(=O)C(=O)Nc2cc(C(F)(F)F)ccc2Cl)C(=O)c2ccco2)C(=O)C1 (centres undefined) | > 100 µM (inactive) | > 100 µM (inactive) | – | > 100 µM (inactive) | > 100 µM (inactive) | > 100 µM (inactive) | > 100 µM (inactive) | > 100 µM (inactive) | > 100 µM (inactive) | > 100 µM (inactive) | > 100 µM (inactive) | > 100 µM (inactive) | > 100 µM (inactive) | > 100 µM (inactive) | > 100 µM (inactive) | > 100 µM (inactive) | > 100 µM (inactive) | > 100 µM (inactive) | > 100 µM (inactive) | > 100 µM (inactive) |
| O=c1oc2ncccc2n1Cc1ccc([N+](=O)[O-])cc1 | > 100 µM (inactive) | > 100 µM (inactive) | > 100 µM (inactive) | > 100 µM (inactive) | > 100 µM (inactive) | > 100 µM (inactive) | > 100 µM (inactive) | > 100 µM (inactive) | > 100 µM (inactive) | > 100 µM (inactive) | > 100 µM (inactive) | > 100 µM (inactive) | > 100 µM (inactive) | > 100 µM (inactive) | > 100 µM (inactive) | – | > 100 µM (inactive) | > 100 µM (inactive) | 26.5 µM (inactive) | > 100 µM (inactive) |
| CC(C)(C)OC(=O)N[C@@H](Cc1ccccc1)C(=O)N1CC[C@@H](C(=O)N2[C@H]3CC4CC[C@@]3(CS2(=O)=O)C4(C)C)N1 | 79.6 µM (inactive) | – | 78.3 µM (inactive) | 97.3 µM (inactive) | 74 µM (inactive) | 48 µM (inactive) | 39.3 µM (inactive) | > 100 µM (inactive) | 39.4 µM (inactive) | 51.6 µM (inactive) | 68.1 µM (inactive) | 59.3 µM (inactive) | 82.6 µM (inactive) | – | 59 µM (inactive) | 93.8 µM (inactive) | 62.8 µM (inactive) | – | – | – |
| Cc1cc(C)c(C#N)c(SC(=S)NC(=O)c2ccccc2)n1 | > 100 µM (inactive) | > 100 µM (inactive) | > 100 µM (inactive) | > 100 µM (inactive) | > 100 µM (inactive) | > 100 µM (inactive) | > 100 µM (inactive) | > 100 µM (inactive) | > 100 µM (inactive) | – | > 100 µM (inactive) | – | > 100 µM (inactive) | – | > 100 µM (inactive) | > 100 µM (inactive) | > 100 µM (inactive) | > 100 µM (inactive) | > 100 µM (inactive) | > 100 µM (inactive) |
| COC([C@@H](OC(=O)c1ccccc1)[C@H](OC(=O)c1ccccc1)C(O)COC(=O)c1ccccc1)n1cc(C)c(=O)[nH]c1=O (some centres undefined) | 44.5 µM (inactive) | 26.1 µM (inactive) | 35.3 µM (inactive) | 15.7 µM (inactive) | 22.8 µM (inactive) | 40.6 µM (inactive) | 30.9 µM (inactive) | 20.8 µM (inactive) | 27.3 µM (inactive) | 20.3 µM (inactive) | 7.83 µM (inactive) | 39.1 µM (inactive) | > 100 µM (inactive) | 24.4 µM (inactive) | 43.2 µM (inactive) | 22.2 µM (inactive) | 21.3 µM (inactive) | 33.8 µM (inactive) | 25.5 µM (inactive) | – |
| O=C1c2scc(-c3ccc(F)cc3)c2-n2cccc21 | 88.1 µM (inactive) | 24.4 µM (inactive) | 15.6 µM (inactive) | 20.8 µM (inactive) | 29.5 µM (inactive) | 24.7 µM (inactive) | 8.67 µM (inactive) | 28.1 µM (inactive) | 28 µM (inactive) | 54.1 µM (inactive) | 39.4 µM (inactive) | 57.7 µM (inactive) | 24.5 µM (inactive) | 26.2 µM (inactive) | 20.6 µM (inactive) | 19.8 µM (inactive) | 27.4 µM (inactive) | 45.3 µM (inactive) | 8.99 µM (inactive) | – |

Reference: ChEMBL document CHEMBL1201862, “PubChem BioAssay data set” (2004)
